Tests used:
ATR-Chk1 DDR pathway [1] = assay: Defined SSB plasmid-induced checkpoint signaling in Xenopus HSS system (immunoblotting); format: biochemical, Xenopus laevis; details: for SSB-induced Chk1 phosphorylation (Chk1 P-S344): HSS with SSB plasmid 75 ng/μL, 30 min incubation, inhibitor added
Method: CTL or SSB plasmid was added to HSS at different concentrations as indicated, and incubated for 30 minutes. Extracts were examined via immunoblotting analysis for Chk1 phosphorylation (i.e., Chk1 P-Ser344) and total Chk1 (FIG. 8A). CTL or SSB plasmid was added to HSS at a final concentration of 75 ng/μL. After different time of incubation at room temperature, the extracts were examined via immunoblotting analysis (FIG. 8B). ATR inhibitor VE-822, ATM inhibitor KU55933, DNA-PK inhibitor NU7441, or recombinant geminin was added to HSS supplemented with CTL or SSB plasmid at a final concentration of […] for 30 minutes. Geminin or roscovitine was added to HSS supplemented with sperm chromatin and hydrogen peroxide. After a 45-min incubation, extracts were examined via immunoblotting analysis as indicated (FIG. 8F). CTL, SSB, or DSB plasmid was added to HSS at different concentrations as indicated. Samples were examined via immunoblotting analysis (FIG. 8G).
CTL or SSB plasmid was added to HSS with the presence or absence of VE-822. After 30-min incubation, Chk1 phosphorylation, RPA32 phosphorylation, and Rad17 phosphorylation were examined via immunoblotting analysis as indicated in the image in FIG. 9A. CTL or SSB plasmid was added to NPE with the presence or absence of VE-822 (ATR inhibitor) or Tautomycin (phosphatase inhibitor). Samples were examined via immunoblotting analysis as illustrated in FIG. 9B. For FIG. 9C, CTL or SSB plasmid was added to mock- or Pol alpha-depleted HSS. After 30-min incubation, samples were analyzed via immunoblotting analysis, as illustrated.
(§1) The care and use of Xenopus laevis was approved by the Institutional Animal Care and Use Committee (IACUC) of the University of North Carolina at Charlotte. The preparation of Xenopus LSS, HSS, and NPE were described previously (35,36,39, which are hereby incorporated by reference herein). […] DNA synthesis analysis was performed as previously described (11,35, which are hereby incorporated by reference herein). ImageQuat software was used to quantify the DNA synthesis from HSS/NPE system. […] DNA-bound fractions from the HSS system were isolated after spinning extracts through a sucrose cushion (0.9 M sucrose, 2.5 mM MgCl2, 50 mM KCl, 10 mM HEPES, pH7.7) at 10,000 rpm for 2 minutes at 4° C. with a swinging bucket.
To determine whether a defined SSB structure triggers a DDR pathway, different concentrations of SSB or CTL plasmid structure were added to HSS, followed by immunoblotting analysis after a 30-minute incubation.

SSB repair = SSB repair of SSB plasmid in the HSS system (agarose gel); format: biochemical, Xenopus laevis; details: SSB plasmid in HSS with or without VE-822; circular/(circular+nicked)
Method: FIGS. 6A-6D illustrate verification and analysis of the defined DNA structures. FIG. 6A is an image verifying the defined SSB structure on agarose gel (Ethidium bromide staining). CTL plasmid was added to HSS for different time. Then DNA samples were isolated and treated with or without Sbfl, and analyzed on agarose gel (Ethidium bromide staining) as shown in FIG. 6B. For FIG. 6C, the SSB plasmid was added to HSS with or without VE-822 for different time as indicated. SSB repair products were isolated and examined on agarose gel (Ethidium bromide staining). FIG. 6D is a graph quantifying SSB repair capacity (circular/(circular+nicked)×100) with or without VE-822 treatment in the HSS system from FIG. 6C.
Nuclease-free water was added to each reaction of HSS that was incubated with SSB or DSB plasmid to a total of 300 μL. Equal volume of phenol-chloroform was added to the mixture and resuspended up and down 5 times and spin for 5 minutes at 13,000 rpm at room temperature. The top aqueous layer was transferred to a new tube and repeat phenol-chloroform extraction. […] Then the purified DNA repair products were analyzed on agarose gel and stained with ethidium bromide. […]

ATR-Chk1 DDR pathway [2] = assay: Plasmid-induced Chk1 phosphorylation in NPE (immunoblotting); format: biochemical, Xenopus laevis
Method: After 30-min incubation, Chk1 phosphorylation, RPA32 phosphorylation, and Rad17 phosphorylation were examined via immunoblotting analysis as indicated in the image in FIG. 9A. […] Samples were examined via immunoblotting analysis as illustrated in FIG. 9B. For FIG. 9C, CTL or SSB plasmid was added to mock- or Pol alpha-depleted HSS. After 30-min incubation, samples were analyzed via immunoblotting analysis, as illustrated.
as §1

U2OS cells = assay: Hydrogen peroxide-induced ATR-Chk1 DDR in human U2OS cells (immunoblotting); format: cell-based; details: asynchronized U2OS cells; VE-822 5 μM 1 hour, then hydrogen peroxide 1.25 mM 4 hours
Method: FIGS. 11A-11B illustrate that hydrogen peroxide induces Chk1 phosphorylation and RPA32 phosphorylation in an ATR-dependent manner in human U2OS cells. FIG. 11A is a digital image of immunoblotting analysis of asynchronized U2OS cells treated with H2O2 and/or VE-822. Cell lysates were analyzed via immunoblotting analysis as indicated. G1 synchronized U2OS cells were treated with H2O2 and/or VE-822. Cell lysates were analyzed via immunoblotting analysis as indicated and illustrated in FIG. 11B.
Human U2OS cells were purchased from the American Type Culture Collection (ATCC) and cultured in Dulbecco's Modified Eagle Medium (DMEM, Life Technologies) supplemented with 10% fetal bovine serum (FBS, Invitrogen), penicillin (100 U/mL) and streptomycin (100 μg/mL, Life Technologies) in incubator at 37° C. and 5% CO2. […] Cells were treated with VE-822 (5 μM) in culture medium for 1 hour followed by hydrogen peroxide treatment (1.25 mM) for 4 hours. Then cells were collected and split for immunoblotting analysis and FACS analysis. For immunoblotting analysis, equal total proteins of cell lysates (10 μg per lane) were loaded and Tubulin was used for loading control. For FACS analysis, cells were further fixed and stained with DAPI followed by cell cycle profiling using FACS machine (BD LSRFortessa) following manufacturer's standard protocol.

ATR-Chk1 DDR pathway [3] = assay: Hydrogen peroxide-induced Chk1 phosphorylation in HSS supplemented with sperm chromatin (immunoblotting); format: biochemical, Xenopus laevis; details: HSS with sperm chromatin and hydrogen peroxide, 45-min incubation
Method: FIGS. 8A-8G illustrate that the ATR-Chk1 DNA damage response pathway is induced by the defined SSB structure in the HSS system. CTL or SSB plasmid was added to HSS at different concentrations as indicated, and incubated for 30 minutes. Extracts were examined via immunoblotting analysis for Chk1 phosphorylation (i.e., Chk1 P-Ser344) and total Chk1 (FIG. 8A). CTL or SSB plasmid was added to HSS at a final concentration of 75 ng/μL. After different time of incubation at room temperature, the extracts were examined via immunoblotting analysis (FIG. 8B). ATR inhibitor VE-822, ATM inhibitor KU55933, DNA-PK inhibitor NU7441, or recombinant geminin was added to HSS supplemented with CTL or SSB plasmid at a final concentration of […] for 30 minutes. Geminin or roscovitine was added to HSS supplemented with sperm chromatin and hydrogen peroxide. After a 45-min incubation, extracts were examined via immunoblotting analysis as indicated (FIG. 8F). CTL, SSB, or DSB plasmid was added to HSS at different concentrations as indicated. Samples were examined via immunoblotting analysis (FIG. 8G).
The care and use of Xenopus laevis was approved by the Institutional Animal Care and Use Committee (IACUC) of the University of North Carolina at Charlotte. […] ImageQuat software was used to quantify the DNA synthesis from HSS/NPE system. […]

Nc1ccc2c3c(cccc13)C(=O)NC2=O [4-Amino-1,8-naphthalimide]
SSB-induced Chk1 phosphorylation (Chk1 P-S344) (ATR-Chk1 DDR pathway [1]): enhanced

O=c1cc(-c2cccc3c2Sc2ccccc2S3)oc(N2CCOCC2)c1 [KU55933]
SSB-induced Chk1 phosphorylation (Chk1 P-S344) (ATR-Chk1 DDR pathway [1]): almost had no effect

O=c1cc(N2CCOCC2)oc2c(-c3cccc4c3sc3ccccc34)cccc12 [NU7441]
SSB-induced Chk1 phosphorylation (Chk1 P-S344) (ATR-Chk1 DDR pathway [1]): almost had no effect

CNCc1ccc(-c2cc(-c3nc(-c4ccc(S(=O)(=O)C(C)C)cc4)cnc3N)on2)cc1 [VE-822]
SSB repair in the HSS system (SSB repair): compromised
SSB-induced Chk1 phosphorylation (Chk1 P-S344) (ATR-Chk1 DDR pathway [1]): compromised
SSB-induced RPA32 phosphorylation (ATR-Chk1 DDR pathway [1]; HSS with SSB plasmid, 30 min): sensitive
SSB-induced Rad17 phosphorylation (ATR-Chk1 DDR pathway [1]; HSS with SSB plasmid, 30 min): sensitive
Chk1 phosphorylation events in NPE (SSB plasmid- and CTL plasmid-induced) (ATR-Chk1 DDR pathway [2]; NPE with the presence of tautomycin): inhibited
hydrogen peroxide-induced Chk1 phosphorylation (U2OS cells): prevented
hydrogen peroxide-induced RPA32 phosphorylation (U2OS cells): prevented

C[C@@]1(CO)[C@H](O)CC[C@@]2(C)[C@H]1CC[C@H]1C[C@@H]3C[C@@]12CC[C@]3(O)CO [aphidicolin]
SSB-induced Chk1 phosphorylation (Chk1 P-S344) (ATR-Chk1 DDR pathway [1]): not affected

CC[C@H](CO)Nc1nc(NCc2ccccc2)c2ncn(C(C)C)c2n1 [rescovitine]
hydrogen peroxide-induced Chk1 phosphorylation in the HSS (ATR-Chk1 DDR pathway [3]): had no effect

CO[C@H]([C@H](O)CC(=O)[C@@H](C)[C@@H](O)CC[C@@H](C)[C@@H]1O[C@]2(CC[C@@H](C)[C@H](CC[C@H](C)C(C)=O)O2)CC[C@@H]1C)[C@H](OC(=O)C[C@@H](O)C1=C(C)C(=O)OC1=O)C(C)C [tautomycin]
SSB plasmid-triggered Chk1 phosphorylation in NPE (ATR-Chk1 DDR pathway [2]; with the presence of tautomycin, no detectable Chk1 phosphorylation without it): very robust

B1: geminin: MCM helicase inhibitor recombinant geminin protein (protein, UniProt O75496 1-209, looked up)
Geminin: MNPSMKQKQEEIKENIKNSSVPRRTLKMIQPSASGSLVGRENELSAGLSKRKHRNDHLTSTTSSPGVIVPESSENKNLGGVTQESFDLMIKENPSSQYWKEVAEKRRKALYEALKENEKLHKEIEQKDNEIARLKKENKELAEVAEHVQYMAELIERLNGEPLDNFESLDNQEFDSEEETVEDSLVEDSEIGTCAEGTVSSSTDAKPCI
SSB-induced Chk1 phosphorylation (Chk1 P-S344) (ATR-Chk1 DDR pathway [1]): not impaired
hydrogen peroxide-induced Chk1 phosphorylation in the HSS (ATR-Chk1 DDR pathway [3]): had no effect

From patent publication US20220315933A1, “SYSTEMS AND METHODS FOR SINGLE-STRAND BREAK SIGNALING AND REPAIR IN A CELL-FREE SYSTEM AND METHODS OF IDENTIFYING MODULATORS OF SINGLE-STRAND BREAK SIGNALING AND REPAIR” (University of North Carolina Charlotte, priority 2017, published 2022)
